In ChEMBL document CHEMBL1671649, “Mutations in three distinct loci cause resistance to peptide deformylase inhibitors in Bacillus subtilis” (2009):
Converted amounts (≈) assume the structure as drawn.

How the values were obtained:
Assay type in all cases: functional
Bacillus subtilis [1] = assay: Antimicrobial activity against Bacillus subtilis harboring fmt AGA to TGA and R3stop mutation after 17 hrs by microtiter broth dilution method
Bacillus subtilis [2] = assay: Antimicrobial activity against Bacillus subtilis harboring fmt with deletion mutation at base pair 745 after 17 hrs by microtiter broth dilution method
Bacillus subtilis [3] = assay: Antimicrobial activity against Bacillus subtilis harboring fmt R116P mutant after 17 hrs by microtiter broth dilution method
Bacillus subtilis [4] = assay: Antimicrobial activity against Bacillus subtilis harboring fmt P120L mutant after 17 hrs by microtiter broth dilution method
Bacillus subtilis [5] = assay: Antimicrobial activity against Bacillus subtilis harboring fmt P113L mutant after 17 hrs by microtiter broth dilution method
Bacillus subtilis [6] = assay: Antimicrobial activity against Bacillus subtilis harboring fmt with base pair insertion at position 745 after 17 hrs by microtiter broth dilution method
Bacillus subtilis [7] = assay: Antimicrobial activity against Bacillus subtilis harboring folD S71Q, S72Q and L73P mutant after 17 hrs by microtiter broth dilution method
Bacillus subtilis [8] = assay: Antimicrobial activity against Bacillus subtilis harboring fmt S110P mutant after 17 hrs by microtiter broth dilution method
Bacillus subtilis [9] = assay: Antimicrobial activity against Bacillus subtilis harboring fmt R116C mutant after 17 hrs by microtiter broth dilution method
Bacillus subtilis [10] = assay: Antimicrobial activity against Bacillus subtilis harboring fmt with 295 to 639 base pair deletion mutation after 17 hrs by microtiter broth dilution method
Bacillus subtilis [11] = assay: Antimicrobial activity against Bacillus subtilis harboring fmt with deletion mutation at base pair 119 after 17 hrs by microtiter broth dilution method
Bacillus subtilis [12] = assay: Antimicrobial activity against Bacillus subtilis harboring folD E17Q mutant after 17 hrs by microtiter broth dilution method
Bacillus subtilis [13] = assay: Antimicrobial activity against Bacillus subtilis harboring folD T184M mutant after 17 hrs by microtiter broth dilution method
Bacillus subtilis [14] = assay: Antimicrobial activity against Bacillus subtilis harboring folD with deletion mutation of base pair 507 to 518 after 17 hrs by microtiter broth dilution method
Bacillus subtilis [15] = assay: Antimicrobial activity against Bacillus subtilis harboring fmt G118D mutant after 17 hrs by microtiter broth dilution method
Bacillus subtilis [16] = assay: Antimicrobial activity against Bacillus subtilis harboring fmt H108R mutant after 17 hrs by microtiter broth dilution method
Bacillus subtilis [17] = assay: Antimicrobial activity against Bacillus subtilis harboring glyA with deletion mutation of base pair 661 to 663 after 17 hrs by microtiter broth dilution method

## CCCCC[C@H](CC(=O)NO)C(=O)N[C@H](C(=O)N1CCC[C@H]1CO)C(C)C [ACTINONIN]
Bacillus subtilis [1]
  MIC: 192 µg/mL (≈ 498 µM)
Bacillus subtilis [2]
  MIC: 96 µg/mL (≈ 249 µM)
Bacillus subtilis [3]
  MIC: > 512 µg/mL
Bacillus subtilis [4]
  MIC: > 512 µg/mL
Bacillus subtilis [5]
  MIC: 96 µg/mL (≈ 249 µM)
Bacillus subtilis [6]
  MIC: 96 µg/mL (≈ 249 µM)
Bacillus subtilis [7]
  MIC: > 512 µg/mL
Bacillus subtilis [8]
  MIC: > 512 µg/mL
Bacillus subtilis [9]
  MIC: 48 µg/mL (≈ 125 µM)
Bacillus subtilis [10]
  MIC: > 512 µg/mL
Bacillus subtilis [11]
  MIC: 192 µg/mL (≈ 498 µM)
Bacillus subtilis [12]
  MIC: 192 µg/mL (≈ 498 µM)
Bacillus subtilis [13]
  MIC: 192 µg/mL (≈ 498 µM)
Bacillus subtilis [14]
  MIC: > 512 µg/mL
Bacillus subtilis [15]
  MIC: > 512 µg/mL
Bacillus subtilis [16]
  MIC: > 512 µg/mL
Bacillus subtilis [17]
  MIC: > 512 µg/mL
